According to patent publication US20090081197A1 (Palatin Technologies, Inc., priority 2007, published 2009):
Non-standard residues stand in square brackets, D forms with d. Residues, ends and D or L forms follow the SMILES beside them. *: point of attachment. dPhe(4-Cl) = N[C@H](Cc1ccc(Cl)cc1)C(=O)O; Ahp = NCCCCCCC(=O)O; Bn = c1ccc(C*)cc1

What was measured:
MC1-R = target: T1, MC1-R (Mus musculus, UniProt Q01727); experiment: Competitive inhibition assay using [I^125]-NDP-α-MSH, B-16 mouse melanoma cell membranes; format: binding; conditions: for inhibition at 1 µM: 1 μM test compound, read-out: Inhibition at 1 μM (NDP-α-MSH) In Normal System, MC1-R
T1 construct: B-16 mouse melanoma cells (containing MC1-R); endogenous in cells
In short: (§1)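 Tracer was 0.4 nM for MC3-R and MC5-R, 0.2 nM for MC4-R and 0.1 nM for MC1-R. Bound radioactivity was gamma-counted after filtration; values are triplicate means, with results below 0% reported as 0%.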

MC3-R = MC3-R (Homo sapiens, UniProt P41968); experiment: Competitive inhibition assay using [I^125]-NDP-α-MSH, hMC3-R membranes; format: binding; design: expressed in transfected cells; conditions: 1 μM test compound; read-out: Inhibition at 1 μM (NDP-α-MSH) In Normal System, MC3-R
In short: as §1

[1] = Penile erection induction in male rats; format: in vivo; conditions: rat
In short: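 Male Sprague-Dawley rats (200-250 g), groups of 4-8, dosed IV or ICV at various doses and observed individually for penile erections. Only statistically relevant increases over vehicle-control mean PEs count as induction; IV responses below 1.0 PEs/rat treated as equivocal, some retested ICV.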

MC4-R [2] = target: T2, MC4-R (Homo sapiens, UniProt P32245); experiment: Competitive inhibition assay using [I^125]-NDP-α-MSH, hMC4-R membranes; format: binding; design: host or cells: TREx-293 (HEK-293 stably expressing Tet repressor); conditions: 1 μM test compound; read-out: Inhibition at 1 μM (NDP-α-MSH) In Normal System, MC4-R
In short: as §1

MC5-R = MC5-R (Homo sapiens, UniProt P33032); experiment: Competitive inhibition assay using [I^125]-NDP-α-MSH, hMC5-R membranes; format: binding; design: expressed in transfected cells; conditions: 1 μM test compound; read-out: Inhibition at 1 μM (NDP-α-MSH) In Normal System, MC5-R
In short: as §1

[3] = ICV food intake and body weight change; format: in vivo; conditions: rat, 1 nmol, 24 hours
In short: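 Rats fitted with intracerebroventricular cannulas and fed ad libitum got a single ICV dose of vehicle or compound (1-3 nmol). Food intake and body-weight change over the 24 h after dosing were compared with a 1-week vehicle baseline. Values at 48 h and 72 h were also recorded to follow return to baseline.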

[4] = IV and IP food intake and body weight change, rats; format: in vivo; conditions: rat, IV
In short: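 Male Sprague-Dawley rats dosed IV (0.5-3, up to 10 mg/kg) or IP (0.5-10, up to 50 mg/kg); male C57BL/6 mice dosed IP. Change in food intake and body weight over 24 h post-dose versus 1-week vehicle baseline, with 48 and 72 h reversal checks.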

MC4-R [5] = target: T2, MC4-R; experiment: cAMP functional activity assay in HEK-293 cells, normal system; format: cell-based; design: expressed in transfected cells; host or cells: HEK-293; conditions: for intrinsic activity at MC4-R in a normal system: normal receptor density system, NDP-α-MSH = 1.0

T2 sequence (P32245 whole entry): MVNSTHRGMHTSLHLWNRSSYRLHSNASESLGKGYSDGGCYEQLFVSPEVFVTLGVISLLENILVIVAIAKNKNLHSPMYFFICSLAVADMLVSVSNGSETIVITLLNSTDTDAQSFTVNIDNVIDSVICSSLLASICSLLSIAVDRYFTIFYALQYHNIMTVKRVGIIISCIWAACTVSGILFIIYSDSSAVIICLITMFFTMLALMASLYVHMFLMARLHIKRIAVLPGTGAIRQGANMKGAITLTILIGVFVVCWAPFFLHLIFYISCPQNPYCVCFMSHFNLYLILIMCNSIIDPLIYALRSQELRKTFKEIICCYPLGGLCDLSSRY
T1 sequence (Q01727 whole entry): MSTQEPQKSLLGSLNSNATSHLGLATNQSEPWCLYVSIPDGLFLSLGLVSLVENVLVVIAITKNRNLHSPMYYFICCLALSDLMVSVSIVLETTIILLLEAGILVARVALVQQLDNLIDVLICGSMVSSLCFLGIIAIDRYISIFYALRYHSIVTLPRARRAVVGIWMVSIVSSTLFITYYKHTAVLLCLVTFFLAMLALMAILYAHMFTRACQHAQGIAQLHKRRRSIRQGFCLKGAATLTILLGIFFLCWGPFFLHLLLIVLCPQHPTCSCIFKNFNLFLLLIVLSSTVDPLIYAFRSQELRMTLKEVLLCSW
Sequence of MC5-R (P33032 whole entry): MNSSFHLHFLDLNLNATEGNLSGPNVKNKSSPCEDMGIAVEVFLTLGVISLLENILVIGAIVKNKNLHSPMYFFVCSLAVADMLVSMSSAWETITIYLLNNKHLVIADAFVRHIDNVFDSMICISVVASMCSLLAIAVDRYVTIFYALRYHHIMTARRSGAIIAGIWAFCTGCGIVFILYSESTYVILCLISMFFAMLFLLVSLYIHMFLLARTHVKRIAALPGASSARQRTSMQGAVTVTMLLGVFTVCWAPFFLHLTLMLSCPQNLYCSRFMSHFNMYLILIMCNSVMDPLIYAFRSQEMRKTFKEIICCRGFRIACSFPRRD
Sequence of MC3-R (P41968 whole entry): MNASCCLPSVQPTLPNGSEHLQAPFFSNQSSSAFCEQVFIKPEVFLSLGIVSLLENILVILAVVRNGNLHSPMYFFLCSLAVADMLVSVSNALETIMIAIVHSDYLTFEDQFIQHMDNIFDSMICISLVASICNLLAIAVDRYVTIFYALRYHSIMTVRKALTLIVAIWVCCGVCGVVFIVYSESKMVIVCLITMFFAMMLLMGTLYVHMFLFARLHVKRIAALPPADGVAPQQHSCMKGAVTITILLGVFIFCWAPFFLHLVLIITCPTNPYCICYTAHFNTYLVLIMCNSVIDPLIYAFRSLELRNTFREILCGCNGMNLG

Row | Structure (SMILES) | inhibition at 1 µM (MC1-R) | Ki (MC1-R; read-out: Ki (nM) (NDP-α-MSH) In Normal System, MC1-R) | inhibition at 1 µM (MC3-R) | Penile Erection ICV ([1]; ICV) | penile erection response ([1]; ICV, 0.3 to 3 nmole) | Penile Erection IV ([1]; IV) | penile erection response ([1]; IV, 0.3 to 30 μg/kg) | inhibition at 1 µM (MC4-R [2]) | inhibition at 1 µM (MC5-R) | decrease in food intake [3] | maximal decrease in food intake ([4]; 10 mg/kg, 24 hours) | intrinsic activity at MC4-R in a normal system (MC4-R [5]) | functional status at MC4-R in cAMP assay (MC4-R [5]; normal system, 1 μM concentration where stated) | penile erection response ([1]; IV) | decrease in body weight [3] | 24 hour decrease in food intake ([4]; dose not stated) | decrease in body weight ([4]; dose not stated, 24 hours)
1 | N=C(N)NCCC[C@H]1CN(CCc2ccc3ccccc3c2)CCN1C(=O)[C@H](N)Cc1ccc(Cl)cc1Cl [Example 17, N-{3-[(S)-1-[(R)-2-Amino-3-(2,4-dichloro-phenyl)-propionyl]-4-(2-naphthalen-2-yl-ethyl)-piperazin-2-yl]-propyl}-guanidine] | 6% | 1200 nM | 87% | No | no penile erection response | No | no penile erection response | 99% | 75% | 32% | 91% | 0.4 | partial agonist (intrinsic activity between 0.1 (10%) and 0.7 (70%) is classified as a partial agonist) | – | – | – | –
2 | N=C(N)NCCC[C@H](NC(=O)[C@@H](Cc1ccc(Cl)cc1)NC(=O)[C@H](COCc1ccccc1)NC(=O)CCCCCCN)C(=O)N[C@@H](Cc1c[nH]c2ccccc12)C(=O)N[C@@H](CC(=O)O)C(N)=O [Example 13, NH2—(CH2)6—C(═O)-Ser(Bzl)-D-Phe(4-Cl)-Arg-Trp-Asp-NH2] (H-[Ahp]S(Bn)[dPhe(4-Cl)]RWD-NH2) | 35% | – | 73% | – | – | No | – | 98% | 48% | 25.7% | – | 0.5 | – | no penile erections | 2.1% | 6% | 1%
